From patent publication US8183239B2, “Substituted piperazines and piperidines as modulators of the neuropeptide Y2 receptor” (Janssen Pharmaceutica NV, priority 2005, dated 2012)

Target: T1, Y2 receptors (Homo sapiens, UniProt P49146)
T1 construct: endogenous in cells; host or cells: KAN-Ts cells (membranes)
T1 sequence (P49146 1-381): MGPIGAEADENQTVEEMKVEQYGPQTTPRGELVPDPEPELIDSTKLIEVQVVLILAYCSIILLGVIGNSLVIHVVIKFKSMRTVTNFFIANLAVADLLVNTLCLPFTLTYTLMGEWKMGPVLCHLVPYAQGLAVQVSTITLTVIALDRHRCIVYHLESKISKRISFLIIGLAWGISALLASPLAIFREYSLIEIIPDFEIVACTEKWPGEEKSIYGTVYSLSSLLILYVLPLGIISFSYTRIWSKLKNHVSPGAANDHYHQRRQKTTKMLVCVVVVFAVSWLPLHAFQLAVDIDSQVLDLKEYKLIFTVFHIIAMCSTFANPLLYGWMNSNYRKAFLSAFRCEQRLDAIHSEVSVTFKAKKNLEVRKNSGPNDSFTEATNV
Experiment: Radioligand binding assay ([125I]PYY, KAN-Ts cell membranes)
Settings: Table 2, [125I]PYY 80 pM, average of results, read-out: IC50
Procedure, shortened: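 Membranes from KAN-Ts cells endogenously expressing Y2 incubated 1 h at rt with 80 pM [^125I]PYY ± test compound in HEPES buffer with NaCl, Ca^2+ and Mg^2+. Bound radioactivity collected by filtration; specific binding defined with […]. IC50 from sigmoidal fit, averaged over 3-8 duplicate experiments.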

IC50 [nM] | Structure (SMILES)
18 | C#Cc1cc(NC(=O)C(CC)CC)ccc1N1CCN(C(C(=O)N(CC)CC)c2ccccc2)CC1 (stereo not drawn) [Example 240, N-{4-[4-(Diethylcarbamoyl-phenyl-methyl)-piperazin-1-yl]-3-ethynyl-phenyl}-2-ethyl-butyramide]
120 | CCN(CC)C(=O)C(c1ccccc1)N1CCN(c2ccc(NC(=O)C3CC3C)cc2F)CC1 (stereo not drawn) [Example 243, 2-Methyl-cyclopropanecarboxylic acid {4-[4-(diethylcarbamoyl-phenyl-methyl)-piperazin-1-yl]-3-fluoro-phenyl}-amide]
3000 | CCC(CC)NC(=O)c1ccc(N2CCN(C(C(=O)N(CC)CC)c3ccccc3)CC2)c(F)c1 (stereo not drawn) [Example 245, 4-[4-(Diethylcarbamoyl-phenyl-methyl)-piperazin-1-yl]-N-(1-ethyl-propyl)-3-fluoro-benzamide]
13 | CCC(CC)C(=O)Nc1ccc(N2CCC([C@@H](C(=O)N(CC)CC)c3ccccc3)CC2)c(F)c1 [Example 248, (R)-(−)-N-{4-[4-(Diethylcarbamoyl-phenyl-methyl)-piperidin-1-yl]-3-fluoro-phenyl}-2-ethyl-butyramide]
100 | CCC(CC)C(=O)Nc1ccc(N2CCC([C@H](C(=O)N(CC)CC)c3ccccc3)CC2)c(F)c1 [Example 249, (S)—(+)-N-{4-[4-(Diethylcarbamoyl-phenyl-methyl)-piperidin-1-yl]-3-fluoro-phenyl}-2-ethyl-butyramide]
104 | CCC(CC)C(=O)Nc1ccc(N2CCN(C(C(=O)N(CC)CC)c3ccc(O)cc3)CC2)c(F)c1 (stereo not drawn) [Example 252, N-(4-{4-[Diethylcarbamoyl-(4-hydroxy-phenyl)-methyl]-piperazin-1-yl}-3-fluoro-phenyl)-2-ethyl-butyramide]
102 | CCC(CC)C(=O)Nc1ccc(N2CCN(C(C(=O)N(CC)CC)c3ccc(Cl)cc3)CC2)c(F)c1 (stereo not drawn) [Example 253, N-(4-{4-[(4-Chloro-phenyl)-diethylcarbamoyl-methyl]-piperazin-1-yl}-3-fluoro-phenyl)-2-ethyl-butyramide]
68 | CCC(CC)C(=O)Nc1ccc(N2CCN(C(C(=O)N(CC)CC)c3ccccc3)C(C)C2)c(F)c1 (stereo not drawn) [Example 257, N-{4-[4-(Diethylcarbamoyl-phenyl-methyl)-3-methyl-piperazin-1-yl]-3-fluoro-phenyl}-2-ethyl-butyramide]
145 | CCC(CC)C(=O)Nc1ccc(N2CCN(C(C(=O)N(CC)CC)c3ccccc3)CC2C)c(F)c1 (stereo not drawn) [Example 258]
100 | CCC(CC)C(=O)Nc1ccc(N2CCN(C(C(=O)N(CC)CC)c3ccccn3)CC2)c(F)c1 (stereo not drawn) [Example 260, N-{4-[4-(Diethylcarbamoyl-pyridin-2-yl-methyl)-piperazin-1-yl]-3-fluoro-phenyl}-2-ethyl-butyramide]
785 | CCC(CC)C(=O)Nc1ccc(N2CCN(C(CO)c3ccccc3)CC2)c(F)c1 (stereo not drawn) [Example 266, 2-Ethyl-N-{3-fluoro-4-[4-(2-hydroxy-1-phenyl-ethyl)-piperazin-1-yl]-phenyl}-butyramide]
1270 | CCC(CC)C(=O)Nc1ccc(N2CCN(C(C)c3ccccc3)CC2)c(F)c1 (stereo not drawn) [Example 267, 2-Ethyl-N-{3-fluoro-4-[4-(1-phenyl-ethyl)-piperazin-1-yl]-phenyl}-butyramide]
1400 | CCC(CC)C(=O)Nc1ccc(N2CCN(Cc3ccccc3)CC2)c(F)c1 [Example 268, N-[4-(4-Benzyl-piperazin-1-yl)-3-fluoro-phenyl]-2-ethyl-butyramide]
4000 | CCC(CC)C(=O)Nc1ccc(N2CCN(Cc3ccccc3)C(C(=O)OC)C2)c(F)c1 (stereo not drawn) [Example 271, 1-Benzyl-4-[4-(2-ethyl-butyrylamino)-2-fluoro-phenyl]-piperazine-2-carboxylic acid methyl ester]
4000 | CCC(CC)C(=O)Nc1ccc(N2CC3CC2CN3C(C(=O)N(CC)CC)c2ccccc2)c(F)c1 (stereo not drawn) [Example 272, N-{4-[5-(Diethylcarbamoyl-phenyl-methyl)-2,5-diaza-bicyclo[2.2.1]heptyl]-3-fluoro-phenyl}-2-ethyl-butyramide]

Second part, the compound before the results:

Structure (SMILES) | IC50 [nM]
CCNC(=O)C(c1ccccc1)N1CCN(c2c(F)cc(NC(=O)C3CCCC3)cc2F)CC1 (stereo not drawn) [Example 239, Cyclopentanecarboxylic acid {4-[4-(ethylcarbamoyl-phenyl-methyl)-piperazin-1-yl]-3,5-difluoro-phenyl}-amide] | 2500
CCN(CC)C(=O)C(c1ccccc1)N1CCN(c2ccc(NC(=O)CC3CC3)cc2F)CC1 (stereo not drawn) [Example 241, 2-{4-[4-(2-Cyclopropyl-acetylamino)-2-fluoro-phenyl]-piperazin-1-yl}-N,N-diethyl-2-phenyl-acetamide] | 300
CCN(CC)C(=O)C(c1ccccc1)N1CCN(c2ccc(NC(=O)CC3CCCC3)cc2F)CC1 (stereo not drawn) [Example 242, 2-{4-[4-(2-Cyclopentyl-acetylamino)-2-fluoro-phenyl]-piperazin-1-yl}-N,N-diethyl-2-phenyl-acetamide] | 3000
CCN(CC)C(=O)C(c1ccccc1)N1CCN(c2ccc(NC(=O)C3CCCC3)cc2F)CC1 (stereo not drawn) [Example 244, Cyclopentanecarboxylic acid {4-[4-(diethylcarbamoyl-phenyl-methyl)-piperazin-1-yl]-3-fluoro-phenyl}-amide] | 80
CCN(CC)C(=O)C(c1ccccc1)N1CCN(c2ccc(CNC(=O)C(C)CC(F)(F)F)cc2F)CC1 (stereo not drawn) [Example 246, N-{4-[4-(Diethylcarbamoyl-phenyl-methyl)-piperazin-1-yl]-3-fluoro-benzyl}-4,4,4-trifluoro-2-methyl-butyramide] | 2200
CCN(CC)C(=O)C(c1ccccc1)N1CCN(c2ccc(CNC(=O)[C@H]3CCOC3)cc2F)CC1 (stereo partly drawn) [Example 247, (S)-Tetrahydro-furan-3-carboxylic acid 4-[4-(diethylcarbamoyl-phenyl-methyl)-piperazin-1-yl]-3-fluoro-benzylamide] | ≥ 10000
CCC(CC)C(=O)Nc1ccc(N2CCN(C(C(=O)N(CC)CC)c3ccc(OC)cc3)CC2)c(C#N)c1 (stereo not drawn) [Example 250, N-(3-Cyano-4-{4-[diethylcarbamoyl-(4-methoxy-phenyl)-methyl]-piperazin-1-yl}-phenyl)-2-ethyl-butyramide] | 9
CCC(CC)C(=O)Nc1ccc(N2CCN(C(C(=O)N(CC)CC)c3ccc(OC)cc3)CC2)c(F)c1 (stereo not drawn) [Example 251, N-(4-{4-[Diethylcarbamoyl-(4-methoxy-phenyl)-methyl]-piperazin-1-yl}-3-fluoro-phenyl)-2-ethyl-butyramide] | 18
CCC(CC)C(=O)Nc1ccc(N2CCN(C(C(=O)N(CC)CC)c3ccc(C#N)cc3)CC2)c(F)c1 (stereo not drawn) [Example 254, N-(4-{4-[(4-Cyano-phenyl)-diethylcarbamoyl-methyl]-piperazin-1-yl}-3-fluoro-phenyl)-2-ethyl-butyramide] | 44
CCOc1ccc(C(C(=O)N(CC)CC)N2CCN(c3ccc(NC(=O)C(CC)CC)cc3F)CC2)cc1 (stereo not drawn) [Example 255, N-(4-{4-[Diethylcarbamoyl-(4-ethoxy-phenyl)-methyl]-piperazin-1-yl}-3-fluoro-phenyl)-2-ethyl-butyramide] | 44
CCC(CC)C(=O)Nc1ccc(N2CCN(C(C(=O)N(CC)CC)c3ccc(OC(F)(F)F)cc3)CC2)c(F)c1 (stereo not drawn) [Example 256, N-(4-{4-[Diethylcarbamoyl-(4-trifluoromethoxy-phenyl)-methyl]-piperazin-1-yl}-3-fluoro-phenyl)-2-ethyl-butyramide] | 26
CCC(CC)C(=O)Nc1ccc(N2CCN(C(C(=O)c3ccccc3)c3ccccc3)CC2)c(F)c1 (stereo not drawn) [Example 259, 2-Ethyl-N-{3-fluoro-4-[4-(2-oxo-1,2-diphenyl-ethyl)-piperazin-1-yl]-phenyl}-butyramide] | 70
CCC(CC)C(=O)Nc1ccc(N2CCN(C(C(=O)N3CCC(F)(F)C3)c3ccccn3)CC2)c(F)c1 (stereo not drawn) [Example 261, N-(4-{4-[2-(3,3-Difluoro-pyrrolidin-1-yl)-2-oxo-1-pyridin-2-yl-ethyl]-piperazin-1-yl}-3-fluoro-phenyl)-2-ethyl-butyramide] | 130
CCC(CC)C(=O)Nc1ccc(N2CCN(C(C(=O)OC)c3ccc(O)cc3)CC2)c(F)c1 (stereo not drawn) [Example 262, {4-[4-(2-Ethyl-butyrylamino)-2-fluoro-phenyl]-piperazin-1-yl}-(4-hydroxy-phenyl)-acetic acid methyl ester] | 162
CCC(CC)C(=O)Nc1ccc(N2CCN(C(C(=O)OC)c3ccc(OC)cc3)CC2)c(F)c1 (stereo not drawn) [Example 263, {4-[4-(2-Ethyl-butyrylamino)-2-fluoro-phenyl]-piperazin-1-yl}-(4-methoxy-phenyl)-acetic acid methyl ester] | 250
CCC(CC)C(=O)Nc1ccc(N2CCN(C(C(=O)OC)c3ccccn3)CC2)c(F)c1 (stereo not drawn) [Example 264, {4-[4-(2-Ethyl-butyrylamino)-2-fluoro-phenyl]-piperazin-1-yl}-pyridin-2-yl-acetic acid methyl ester] | 550
CCC(CC)C(=O)Nc1ccc(N2CCN(Cc3ccc4c(c3)OCO4)C(C(=O)OC)C2)c(F)c1 (stereo not drawn) [Example 270, 1-Benzo[1,3]dioxol-5-ylmethyl-4-[4-(2-ethyl-butyrylamino)-2-fluoro-phenyl]-piperazine-2-carboxylic acid methyl ester] | 3000
CCC(CC)C(=O)Nc1ccc(N2CCN(Cc3cc(F)cc(F)c3)C(C(=O)OC)C2)c(F)c1 (stereo not drawn) [Example 273, 1-(3,5-Difluoro-benzyl)-4-[4-(2-ethyl-butyrylamino)-2-fluoro-phenyl]-piperazine-2-carboxylic acid methyl ester] | 7000
